How the values were obtained:
[1] = system: Sclerotinia fructicola; test: Mycelial growth test; assay type: cell-based; settings: Sclerotinia, 72 h, SF, read-out: Percent Fungus Growth Inhibition
Excerpt: | SF = Sclerotinia fructicola

[2] = system: Cercospora beticola; test: whole plant or invertebrate; settings: in Beta vulgaris, foliar, 24 h, read-out: Percent Disease Control, curative, sugar beet leaf spot
[3] = system: Fusarium solani; test: Soil treatment, bean root rot; assay type: in vivo; settings: Fusarium solani, soil, 336 h; 150 ppm suspension, 3.8 mg active per pot; read-out: Percent Disease Control, seed/soil, bean root rot
Method: In a similar manner the soil around a bean seedling was drenched with a sufficient amount of 150 ppm suspension of test chemical to provide 3.8 mg active per pot. Twenty-four hours later the soil was inoculated with a suspension of minced mycelium of Fusarium solani. The inoculated plants were then placed in a greenhouse, evaluated after fourteen days, and percent control of root rot damage calculated. The results, reported in Table III, indicate only a few of the compounds tested are effective in treating Bean Root Rot but that these provide a high degree of control.

| SMILES | inhibition at 5 ppm [1] [%] | inhibition at 10 ppm [1] [%] | inhibition at 20 ppm [1] [%] | inhibition at 40 ppm [1] [%] | pest or weed control at 150 ppm [2] [%] | pest or weed control at 150 ppm, 3.8 mg/pot [3] [%] |
| --- | --- | --- | --- | --- | --- | --- |
| O=c1c(Cl)nsnc1Oc1ccc(F)cc1 [Compound 11, 3-chloro-5-(4-fluorophenoxy)-4H--1,2,6-thiadiazin-4-one] | 100 | 100 | 100 | 100 | 0 | 0 |
| CC(=O)c1cccc(Oc2nsnc(Cl)c2=O)c1 [Compound 48, 3-(3-acetylphenoxy)-5-chloro-4H--1,2,6-thiadiazin-4-one] | 82 | 88 | 94 | 100 | – | 95 |
| Cc1cc(Cl)ccc1Oc1nsnc(Cl)c1=O [Compound 55, 3-chloro-5-(4-chloro-2-methylphenoxy)-4H--1,2,6-thiadiazin-4-one] | 42 | 50 | 56 | 61 | 95 | 0 |
| Cc1cc(Oc2nsnc(Cl)c2=O)cc(C)c1Cl [Compound 59, 3-chloro-5-[(4-chloro-3,5-dimethyl)phenoxy]-4H--1,2,6-thiadiazin-4-one] | 71 | 68 | 59 | 74 | 0 | 0 |
| CC(=O)c1ccc(Oc2nsnc(Cl)c2=O)cc1 [Compound 47, 3-(4-acetylphenoxy)-5-chloro-4H--1,2,6-thiadiazin-4-one] | 82 | 82 | 100 | 100 | 90 | 95 |
| Cc1ccc(Oc2nsnc(Cl)c2=O)cc1 [Compound 3, 3-chloro-5-(4-methylphenoxy)-4H--1,2,6-thiadiazin-4-one] | 27 | 67 | 94 | 100 | 0 | 80 |
| O=c1c(Cl)nsnc1Oc1c(Cl)cc(Cl)cc1Cl [Compound 30, 3-chloro-5-(2,4,6-trichlorophenoxy)-4H--1,2,6-thiadiazin-4-one] | 50 | 87 | 97 | 97 | 0 | 0 |
| CC(=O)c1ccccc1Oc1nsnc(Cl)c1=O [Compound 49, 3-(2-acetylphenoxy)-5-chloro-4H--1,2,6-thiadiazin-4-one] | 14 | 33 | 75 | 100 | 0 | 0 |
| O=c1c(Cl)nsnc1Oc1ccc(Cl)c(Cl)c1 [Compound 16, 3-chloro-5-(3,4-dichlorophenoxy)-4H--1,2,6-thiadiazin-4-one] | 64 | 67 | 67 | 67 | 95 | 0 |
| COc1ccc(Cl)c(Oc2nsnc(Cl)c2=O)c1 [Compound 51, 3-chloro-5-[(2-chloro-5-methoxy)phenoxy]-4H--1,2,6-thiadiazin-4-one] | 69 | 92 | 92 | 100 | – | – |
| CC(C)(C)c1ccc(Oc2nsnc(Cl)c2=O)cc1 [Compound 4, 3-chloro-5-(4-tert-butylphnoxy)-4H--1,2,6-thiadiazin-4-one] | 0 | 0 | 4 | 0 | 0 | 0 |
| CCOC(=O)c1ccc(Oc2nsnc(Cl)c2=O)cc1 [Compound 7, 3-chloro-5-(4-ethoxycarbonylphenoxy)-4H--1,2,6-thiadiazin-4-one] | 54 | 100 | 100 | 100 | 75 | 98 |
| Cc1ccccc1Oc1nsnc(Cl)c1=O [Compound 22, 3-chloro-5-(2-methylphenoxy)-4H--1,2,6-thiadiazin-4-one] | 24 | 100 | 100 | 100 | 0 | 0 |
| N#CCc1ccc(Oc2nsnc(Cl)c2=O)cc1 [Compound 46, 3-chloro-5-[(4-cyanomethyl)-phenoxy]4H--1,2,6-thiadiazin-4-one] | 19 | 76 | 81 | 100 | – | – |
| O=C(OCc1ccccc1)Oc1ccc(Oc2nsnc(Cl)c2=O)cc1 [Compound 38, 3-chloro-5-[4-(phenylmethoxycarbonyloxy)phenoxyl]-4H-1,2,6-thiadiazin-4-one] | 0 | 0 | 0 | 8 | – | – |
| O=c1c(Cl)nsnc1Oc1ccc([N+](=O)[O-])cc1Cl [Compound 53, 3-chloro-5-(2-chloro-4-nitrophenoxy)-4H--1,2,6-thiadiazin-4-one] | 63 | 89 | 100 | 100 | – | – |
